Experimental data: publication PMC9200625, “Identification and Functional Characterization of Peptides With Antimicrobial Activity From the Syphilis Spirochete, Treponema pallidum” (Frontiers in Microbiology, 2022)
Read-outs that look alike come from different tables or passages of the source. Bridge positions count the residues as written; N and C are the ends. Ends that are not written are not given here. Peptide text beside a SMILES is read from it.

Columns and labels:
S. enterica SL1344 = type: cell-based, Salmonella enterica subsp. enterica serovar Typhimurium
Description: (§1) Bacterial strains used in this study were: E. coli ATCC 9723H, Pseudomonas aeruginosa ATCC 10148, Staphylococcus aureus ATCC 6538P (penicillin resistant), Streptococcus pyogenes (hospital isolate, strain unknown), Mycobacterium smegmatis MC^2155, N. gonorrhoeae ATCC 700825 (streptomycin resistant), and Salmonella enterica subsp. enterica serovar Typhimurium SL1344 (streptomycin resistant). E. coli, P. aeruginosa, S. aureus, M. smegmatis, and S. enterica were cultured aerobically at 37°C in Mueller Hinton broth (MHB) (Sigma-Aldrich, MO, United States) and on nonselective Mueller Hinton agar (MHA) plates. S. pyogenes was cultured in 5% carbon dioxide at 37°C in MHB supplemented with 5% lysed horse blood (Quad Five, MT, United States) (MHB + 5% HB) and on nonselective MHA plates supplemented with 5% defibrinated sheep blood (Quad Five, MT, United States) (MHA + 5% SB). N. gonorrhoeae was cultured in 5% carbon dioxide at 37°C in gonococcal (GC) chocolate broth medium and on nonselective GC agar plates [GC medium base (BD Difco, MD, United States) supplemented with 1% BBL™ hemoglobin (BD Biosciences, MD, United States) and 1% IsoVitaleX (BD Biosciences, MD, United States)]. Prior to antimicrobial susceptibility assays (as described below), N. gonorrhoeae cultures were subcultured on nonselective GC agar plates (as described above), to ensure bacterial viability. All bacterial stocks were stored in 20% glycerol at –80°C.
(§2) Bacterial suspensions were prepared by transferring bacterial colonies into MHB and resuspending using a vortex mixer to ensure complete suspension of any bacterial aggregates. Turbidity of the colony suspensions was adjusted spectrophotometrically to the required optical densities to achieve a turbidity equivalent to that of a 0.5 McFarland standard (1–2 × 10^8 CFU/mL) followed by dilution in MHB to achieve the standardized microbial inoculum of approximately 5 × 10^5 CFU/mL. Total viable counts (TVC) were routinely performed on all inoculum suspensions to ensure correct bacterial cell densities. […] Plates were incubated at 37°C for 16–24 h and MICs were determined using the unaided eye to identify the lowest concentration of AMP that inhibited visible growth of the tested bacterial species. […] MBCs were determined by plating the entire content of the wells containing the peptide/bacteria mixture representing the MIC and the entire contents of the preceding wells containing two-fold and four-fold more concentrated AMP dilutions onto nonselective agar plates.

E. coli ATCC 9723H = type: cell-based
Description: as §1
(§3) Bacterial suspensions were prepared by transferring bacterial colonies into MHB and resuspending using a vortex mixer to ensure complete suspension of any bacterial aggregates. Turbidity of the colony suspensions was adjusted spectrophotometrically to the required optical densities to achieve a turbidity equivalent to that of a 0.5 McFarland standard (1–2 × 10^8 CFU/mL) followed by dilution in MHB to achieve the standardized microbial inoculum of approximately 5 × 10^5 CFU/mL. Total viable counts (TVC) were routinely performed on all inoculum suspensions to ensure correct bacterial cell densities. The standardized bacterial suspensions were then incubated with two-fold serial dilutions of each peptide (dissolved in 11 μL of ultrapure sterile water; final peptide concentration range of 256 μg/mL–0.5 μg/mL) in Greiner polypropylene round bottom 96-well microtiter plates (Sigma-Aldrich, MO, United States). Each peptide was tested once per experiment, with a range of 3–9 independent experiments performed per peptide. Negative growth/sterility control wells contained bacterial growth media (100 μL) and the peptide solvent (11 μL of ultrapure sterile water). Positive growth control wells contained the standardized number of bacterial cells (100 μL of ∼ 5.0 × 10^5 CFU/mL) and peptide solvent (11 μL of ultrapure sterile water). Plates were incubated at 37°C for 16–24 h and MICs were determined using the unaided eye to identify the lowest concentration of AMP that inhibited visible growth of the tested bacterial species. If the sterility control well was turbid, the test was not considered valid. MBCs were determined by plating the entire content of the wells containing the peptide/bacteria mixture representing the MIC and the entire contents of the preceding wells containing two-fold and four-fold more concentrated AMP dilutions onto nonselective agar plates.

P. aeruginosa ATCC 10148 = type: cell-based, Pseudomonas aeruginosa
Description: as §1, §3

[1] = test system: S. pyogenes Unknown strain; Clinical Isolate; type: cell-based, Streptococcus pyogenes; conditions: for MIC: broth microdilution, cultured in MHB + 5% lysed horse blood, 5% carbon dioxide, ~5 × 10^5 CFU/mL, peptide 256–0.5 μg/mL, 37°C 16–24 h, visible growth
Description: as §1, §3

M. smegmatis MC^2155 = type: cell-based, Mycobacterium smegmatis
Description: as §1, §3

S. aureus ATCC 6538P = type: cell-based, Staphylococcus aureus
Description: as §1, §2

[2] = test system: N. gonorrhoeae ATCC 700825; type: cell-based, Neisseria gonorrhoeae
Description: as §1
The potential antimicrobial activity of the T. pallidum peptides against N. gonorrhoeae was determined using a modified agar dilution method. In this assay, N. gonorrhoeae colonies from GC chocolate agar plates were resuspended in MHB and the turbidity of the suspension was adjusted, as described above, to achieve the standardized microbial inoculum of approximately 5 × 10^5 CFU/mL. A two-fold serial dilution of the peptides (11 μL in sterile ultrapure water) was then prepared in wells 1–10 of a 96-well sterile polypropylene plate to obtain a dilution series corresponding to 10 times the required testing concentrations (2,560, 1,280, 640, 320, 160, 80, 40, 20, 10, 5 μg/mL). The bacterial suspension (100 μL) was dispensed into the wells containing the peptides. A negative growth/sterility control (well 12) contained bacterial growth media (100 μL) and the peptide solvent (11 μL of ultrapure sterile water). A positive growth control (well 11) contained the standardized number of bacterial cells (100 μL of ∼ 5.0 × 10^5 CFU/mL) and peptide solvent (11 μL of ultrapure sterile water). The 96-well plate was then incubated at 37°C in an atmosphere of 5% CO2 for 3 h to allow for peptide binding and antimicrobial activity. After the incubation period, an aliquot (20 μL) from wells 1–12 was removed and spotted onto the surface of a GC chocolate agar plate. N. gonorrhoeae spotted plates and TVC plates were incubated at 37°C in an atmosphere of 5% CO2 for 18–24 h. […] To determine the bactericidal activity of peptides, total viable counts (TVCs) were also prepared on GC chocolate agar plates for the 3 h-incubated peptide/bacteria mixtures. These counts were compared with TVCs from the corresponding positive growth wells to give the percentage of bacteria killed by each of the peptides following the 3-h incubation.

[3] = range over 3–9 independent experiments
[4] = wells at MIC, two-fold and four-fold higher plated on nonselective agar, 24 h 37°C, range over 3–9 independent experiments
[5] = broth microdilution in MHB, ~5 × 10^5 CFU/mL, peptide 256–0.5 μg/mL two-fold dilutions, 37°C 16–24 h, visible growth by unaided eye, range over 3–9 independent experiments

Row | Compound | N. gonorrhoeae killing (%) ([2]; ATCC 700825, 3 h, 128 μg/mL) | N. gonorrhoeae killing (%) ([2]; ATCC 700825, 3 h, 256 μg/mL) | N. gonorrhoeae killing (%) ([2]; ATCC 700825, 3 h, 32 μg/mL) | N. gonorrhoeae killing (%) ([2]; ATCC 700825, 3 h, 64 μg/mL) | MIC (M. smegmatis MC^2155; [5]) | MBC (M. smegmatis MC^2155; [4]) | MIC (E. coli ATCC 9723H; [5]) | other results
1 | CC[C@H](C)[C@H](NC(=O)[C@@H](NC(=O)[C@@H]1CCCN1C(=O)[C@H](Cc1ccccc1)NC(=O)[C@@H](N)Cc1ccccc1)[C@@H](C)CC)C(=O)N[C@@H](C)C(=O)N[C@@H](CCCNC(=N)N)C(=O)N[C@@H](CC(C)C)C(=O)N[C@@H](C)C(=O)N[C@@H](C)C(=O)N[C@@H](CCCCN)C(=O)N[C@H](C(=O)N[C@H](C(=O)N1CCC[C@H]1C(=O)N[C@@H](CO)C(=O)N[C@@H](CC(C)C)C(=O)N[C@H](C(=O)N[C@H]1CSSC[C@@H](C(=O)O)NC(=O)[C@H](CCCCN)NC(=O)[C@H](CCCCN)NC(=O)[C@H]([C@@H](C)O)NC(=O)[C@H](C(C)C)NC(=O)[C@H](C)NC1=O)C(C)C)[C@@H](C)CC)C(C)C [RaCa-2] (H-FFPIIARLAAKVIPSLVCAVTKKC-OH; disulfide 18-24; N-terminus and C-terminus assumed) |  |  |  |  |  |  |  | MIC (S. enterica SL1344; SL1344): 6.2 to 49.4 µM; MBC (S. enterica SL1344; SL1344, 24 h): 12.4 to 98.9 µM; MIC (E. coli ATCC 9723H; ATCC 9723): 3.1 to 12.4 µM; MBC (E. coli ATCC 9723H; ATCC 9723, 24 h): 6.2 to 24.7 µM; MIC (P. aeruginosa ATCC 10148; ATCC 10148): 49.4 to 98.9 µM; MBC (P. aeruginosa ATCC 10148; ATCC 10148, 24 h): ≥98.9 µM; MBC ([1]; Unknown strain, Clinical Isolate, 24 h): 6.2 to 49.4 µM; MIC (M. smegmatis MC^2155; MC^2155): 1.5 to 3.1 µM; MBC (M. smegmatis MC^2155; MC^2155, 24 h): 1.5 to 6.2 µM; MIC (S. aureus ATCC 6538P; ATCC 6538): 3.1 to 6.2 µM; MBC (S. aureus ATCC 6538P; ATCC 6538, 24 h): 3.1 to 12.4 µM
2 | CC(C)C[C@H](NC(=O)[C@H](CCC(=O)O)NC(=O)[C@H](CC(N)=O)NC(=O)CNC(=O)[C@H](Cc1ccc(O)cc1)NC(=O)[C@H](CS)NC(=O)[C@H](Cc1c[nH]cn1)NC(=O)[C@H](CC(C)C)NC(=O)[C@H](CO)NC(=O)[C@H](CCCNC(=N)N)NC(=O)[C@H](Cc1c[nH]cn1)NC(=O)[C@H](Cc1ccc(O)cc1)NC(=O)CNC(=O)[C@@H](NC(=O)[C@H](CC(N)=O)NC(=O)[C@H](CS)NC(=O)[C@H](CC(N)=O)NC(=O)[C@H](CS)NC(=O)[C@H](Cc1c[nH]cn1)NC(=O)[C@H](CO)NC(=O)CNC(=O)[C@H](CS)NC(=O)CN)C(C)C)C(=O)N[C@@H](Cc1c[nH]cn1)C(=O)NCC(=O)N[C@@H](CCCCN)C(=O)N[C@@H](CCC(N)=O)C(=O)N[C@@H](CS)C(=O)NCC(=O)N[C@@H](Cc1ccccc1)C(=O)N[C@@H](CO)C(=O)N[C@@H](CCCNC(=N)N)C(=O)N[C@@H](CS)C(=O)NCC(=O)O [Tp0451a_N] (H-GCGSHCNCNVGYHRSLHCYGNELHGKQCGFSRCG-OH) | 0% | 0% |  |  |  |  |  | 
3 | AMRIALWNRATHGEQGALQHLLAG [Tp0751_p5] | 0% | 0% | 0% | 0% |  |  |  | 
4 | IGRARAITHTWGIWCRWGKVWRRS [Tp0451a_C] | 94.4–100% | 97.6–100% | 0–93.0% | 90.5–100% | 1.4 to 2.7 µM | 1.4 to 5.4 µM |  | MIC [1, 3]: 5.4 to 10.8 µM; MBC [1, 4]: 5.4 to 43.3 µM
5 | IGRARAITHTWGIWSRWGKVWRRS [Tp0451a_C_C85S] | 0% | 0% | 0% | 0% | 5.4 µM | 10.9 µM | 10.9 to 21.8 µM | MBC (E. coli ATCC 9723H; [4]): 10.9 to 43.6 µM; MIC [1, 3]: 5.4 to 10.9 µM; MBC [1, 4]: 10.9 to 43.6 µM
6 | KGIVAERILKPCVRRKVNGKFRS [Tp0749_C] | 0% | 0% |  |  | 1.5 to 3.0 µM | 1.5 to 3.0 µM | 12.0 µM | MBC (E. coli ATCC 9723H; [4]): 48.2 to 96.4 µM; MIC (P. aeruginosa ATCC 10148; [5]): 24.1 to 48.2 µM; MBC (P. aeruginosa ATCC 10148; [4]): 96.4 µM
7 | KGIVAERILKPSVRRKVNGKFRS [Tp0749_C_C61S] | 0% | 0% |  |  | 12.1 to 24.2 µM | 24.2 to 48.5 µM | 24.2 to 48.5 µM | MIC (P. aeruginosa ATCC 10148; [5]): 97.0 µM
8 | PFMQVITWARLYHKNQKRYEKIKK [Tp0749_N] | 0% | 0% |  |  | 0.3 to 1.3 µM | 1.3 µM |  | 
9 | RSLEGTDRFPFVRLKNSRKLEFKDIKGIKREQFVKIL [sLL-37] |  |  |  |  |  |  |  | MIC (P. aeruginosa ATCC 10148; ATCC 10148): ≥57 µM; N. gonorrhoeae killing (%) ([2]; peptide 32 μg/mL, 3-h incubation 37°C 5% CO2, TVCs versus positive growth control, all of three to six independent experiments): 0%; N. gonorrhoeae killing (%) ([2]; peptide 64 μg/mL, 3-h incubation 37°C 5% CO2, TVCs versus positive growth control, all of three to six independent experiments): 0%; N. gonorrhoeae killing (%) ([2]; peptide 128 μg/mL, 3-h incubation 37°C 5% CO2, TVCs versus positive growth control, all of three to six independent experiments): 0%; N. gonorrhoeae killing (%) ([2]; peptide 256 μg/mL, 3-h incubation 37°C 5% CO2, TVCs versus positive growth control, all of three to six independent experiments): 0%; MIC (M. smegmatis MC^2155; MC^2155): 14.2 to 28.5 µM; MBC (M. smegmatis MC^2155; MC^2155, 24 h): ≥57 µM
